pIC50: −log10 of the molar value. Marks after values point to notes of the source that are not given here.
Key:
[1] = tested on: human coronary artery smooth muscle cell proliferation; experiment: In vitro cell culture study of coronary artery smooth muscle cell proliferation; format: cell-based
Source text: FIG. 51 is a graph of the inhibition of coronary artery smooth muscle cells by trichostatin A in a cell culture study.

[2] = In vivo release kinetics from rapamycin/mycophenolic acid coatings, porcine pharmacokinetics studies
Source text: The topcoat is two hundred micro grams.

[3] = tested on: neointimal hyperplasia and inflammation; experiment: Rapamycin compared with dexamethasone delivered from a stent; format: in vivo; details: for Inflammation Score: uncoated 0.97 ± 1.00; for Neointimal Area: uncoated 5.24 ± 1.65; for % Area Stenosis: uncoated 54 ± 19
Source text: Dexamethasone, a potent steroidal anti-inflammatory agent, was used as a reference standard.

[4] = tested on: human coronary artery smooth muscle cells; experiment: Anti-proliferative activity of rapamycin with varying concentrations of mycophenolic acid; format: cell-based; details: non-synchronized cultured human coronary artery smooth muscle cells, two percent fetal bovine serum, mycophenolic acid zero to one thousand nano molar, FIG. 52
Source text: The multiple curves represent various concentrations of mycophenolic acid ranging from zero to one thousand nano molar concentrations. […] This potentiation observed in cultured coronary artery smooth muscle cells preferably translates to an enhancement in anti-restenotic efficacy following vascular injury and a reduction in the required amount of either agent to achieve the desired anti-restenotic effect.

| Structure (SMILES) | Inflammation Score [3] | Neointimal Area [3] | % Area Stenosis [3] | further results |
| --- | --- | --- | --- | --- |
| CC(/C=C/C(=O)NO)=C\[C@@H](C)C(=O)c1ccc(N(C)C)cc1 [trichostatin A] | – | – | – | inhibition of human coronary artery smooth muscle cell proliferation ([1]; FIG. 51): completely inhibit; pIC50 ([1]; human coronary artery smooth muscle cells, read-out: anti-proliferative IC50): ~8.22 |
| CO[C@H]1C[C@@H]2CC[C@@H](C)[C@@](O)(O2)C(=O)C(=O)N2CCCC[C@H]2C(=O)O[C@H]([C@H](C)C[C@@H]2CC[C@@H](O)[C@H](OC)C2)CC(=O)[C@H](C)/C=C(\C)[C@@H](O)[C@@H](OC)C(=O)[C@H](C)C[C@H](C)/C=C/C=C/C=C/1C [Rapamycin, rapamycin] | 0.13 ± 0.19 | 2.47 ± 0.94* mm^2 | 26 ± 10 % | in vivo release rate ([2]; PVDF basecoat 600 μg, rapamycin and mycophenolic acid equally two thirds by weight, 200 μg PVDF topcoat, FIG. 56): slower release rate than that of mycophenolic acid |
| COc1c(C)c2c(c(O)c1C/C=C(\C)CCC(=O)O)C(=O)OC2 [mycophenolic acid] | – | – | – | effect on the anti-proliferative rapamycin dose response curve [4]: potentiates the anti-proliferative activity of rapamycin; in vivo release of mycophenolic acid from the basecoat ([2]; EVA/BMA basecoat 600 μg with 30% rapamycin and 30% mycophenolic acid, BMA topcoat 0/100/200 μg, FIG. 54): elutes more completely over a shorter duration than the rapamycin |
| C[C@@H]1C[C@H]2[C@@H]3CCC4=CC(=O)C=C[C@]4(C)[C@@]3(F)[C@@H](O)C[C@]2(C)[C@@]1(O)C(=O)CO [Dexamethasone, dexamethasone] | 0.39 ± 0.24 | 4.31 ± 3.02 mm^2 | 45 ± 31% | – |

From patent US20050187608A1, “Radioprotective compound coating for medical devices” (priority 2004, published 2005)
